Experimental data as given in US6090820A, “Spirocyclic and bicyclic diazinyl and carbazinyl oxazolidinones” (Pharmacia & Upjohn Company, priority 1997, dated 2000).
Values after ≈ are worked out from the molar mass of the structure shown. Like-named read-outs stand apart in the source and are kept apart here.

Tests used:
S. pneumoniae UC® 9912 = assay: MIC by agar dilution, S. pneumoniae UC 9912; format: cell-based; conditions: Streptococcus pneumoniae
Text: (§1) The oxazolidinone antibacterial agents of this invention have useful activity against a variety of organisms. The in vitro activity of compounds of this invention can be assessed by standard testing procedures such as the determination of minimum inhibitory concentration (MIC) by agar dilution as described in "Methods for Dilution Antimicrobial Susceptibility Tests for Bacteria That Grow Aerobically" (MFT) published January 1983 by the National Committee for Clinical Laboratory Standards, 771 East Lancaster Avenue, Villanova, Pa. 19084, USA. The activity of selected compounds of this invention against Staphylococcus aureus and Streptococcus pneumoniae are shown in Table 1.

S. aureus UC ® 9213 = assay: MIC by agar dilution, S. aureus UC 9213; format: cell-based; conditions: Staphylococcus aureus
Text: as §1

[1] = UC9912, S. pneumoniae UC 9912, in vitro, agar dilution, read-out: Minimum Inhibitory Concentration
[2] = UC9213, S. aureus UC 9213, in vitro, agar dilution, read-out: Minimum Inhibitory Concentration

CC(=O)NC[C@H]1CN(c2ccc(N3C[C@H]4CN(C(=O)OCc5ccccc5)C[C@H]4C3)c(F)c2)C(=O)O1 [Example 1, (S)-N-[[3-[4-[cis-3-(carbobenzyloxy)-3,7-diazabicyclo[3.3.0]octan-7-yl]-3-fluorophenyl]-2-oxo-5-oxazolidinyl]methyl]acetamide]
MIC (S. pneumoniae UC® 9912; [1]): 2 µg/mL (≈ 4.03 µM) | MIC (S. aureus UC ® 9213; [2]): 4 µg/mL (≈ 8.06 µM)

CC(=O)NC[C@H]1CN(c2ccc(N3C[C@H]4CN(C(=O)COCc5ccccc5)C[C@H]4C3)c(F)c2)C(=O)O1 [Example 2, (S)-N-[[3-[3-fluoro4-[cis-3-(benzyloxyacetyl)-3,7-diazabicyclo[3.3.0]octan-7-yl]phenyl]-2-oxo-5-oxazolidinyl]methyl]acetamide]
MIC (S. pneumoniae UC® 9912; [1]): 1 µg/mL (≈ 1.96 µM) | MIC (S. aureus UC ® 9213; [2]): 8 µg/mL (≈ 15.7 µM)

CC(=O)NC[C@H]1CN(c2ccc(N3C[C@H]4CN(C(=O)CO)C[C@H]4C3)c(F)c2)C(=O)O1 [Example 3, (S)-N-[[3-[3-fluoro4-[cis-3-(hydroxyacetyl)-3,7-diazabicyclo[3.3.0]octan-7-yl]phenyl]-2-oxo-5-oxazolidinyl]methyl]acetamide]
MIC (S. pneumoniae UC® 9912; [1]): < 0.5 µg/mL | MIC (S. aureus UC ® 9213; [2]): 4 µg/mL (≈ 9.51 µM)

CN[C@H](CC(C)C)C(=O)N[C@H]1C(=O)N[C@@H](CC(N)=O)C(=O)N[C@H]2C(=O)N[C@H]3C(=O)N[C@H](C(=O)N[C@H](C(=O)O)c4cc(O)cc(O)c4-c4cc3ccc4O)[C@H](O)c3ccc(c(Cl)c3)Oc3cc2cc(c3O[C@@H]2O[C@H](CO)[C@@H](O)[C@H](O)[C@H]2O[C@H]2C[C@](C)(N)[C@H](O)[C@H](C)O2)Oc2ccc(cc2Cl)[C@H]1O [vancomycin, reference compound]
MIC (S. pneumoniae UC® 9912; UC9912, read-out: Minimum Inhibitory Concentration): 0.5 µg/mL (≈ 0.345 µM) | MIC (S. aureus UC ® 9213; UC9213, read-out: Minimum Inhibitory Concentration): 1 µg/mL (≈ 0.69 µM)
